In patent publication US20100216779A1 (GLAXOSMITHKLINE LLC, priority 2007, published 2010) one finds IC50 data, which are given here for 16 compounds.

Where only a bound is given, the exact number is not on record here.

What all share (type): cell-based
Test [1] deals with COLO205 (colon). Put plainly: Inhibition of cell proliferation, CellTiter-Glo, COLO205. The conditions noted are these: Homo sapiens, COLO 205, 72 h. Summed up: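 Exponentially growing COLO205 cells in medium with 10% FBS were plated below 2000 cells/well at 37 °C, 5% CO2. Untreated wells served as controls.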
The target in test [2] is T1, IR (NIH-3T3 cells over expressing human IGF-1R or IR) (Homo sapiens, UniProt P06213).
T1 construct: expressed in transfected cells; host or cells: NIH-3T3 (mouse fibroblasts)
T1 sequence (P06213 28-1382): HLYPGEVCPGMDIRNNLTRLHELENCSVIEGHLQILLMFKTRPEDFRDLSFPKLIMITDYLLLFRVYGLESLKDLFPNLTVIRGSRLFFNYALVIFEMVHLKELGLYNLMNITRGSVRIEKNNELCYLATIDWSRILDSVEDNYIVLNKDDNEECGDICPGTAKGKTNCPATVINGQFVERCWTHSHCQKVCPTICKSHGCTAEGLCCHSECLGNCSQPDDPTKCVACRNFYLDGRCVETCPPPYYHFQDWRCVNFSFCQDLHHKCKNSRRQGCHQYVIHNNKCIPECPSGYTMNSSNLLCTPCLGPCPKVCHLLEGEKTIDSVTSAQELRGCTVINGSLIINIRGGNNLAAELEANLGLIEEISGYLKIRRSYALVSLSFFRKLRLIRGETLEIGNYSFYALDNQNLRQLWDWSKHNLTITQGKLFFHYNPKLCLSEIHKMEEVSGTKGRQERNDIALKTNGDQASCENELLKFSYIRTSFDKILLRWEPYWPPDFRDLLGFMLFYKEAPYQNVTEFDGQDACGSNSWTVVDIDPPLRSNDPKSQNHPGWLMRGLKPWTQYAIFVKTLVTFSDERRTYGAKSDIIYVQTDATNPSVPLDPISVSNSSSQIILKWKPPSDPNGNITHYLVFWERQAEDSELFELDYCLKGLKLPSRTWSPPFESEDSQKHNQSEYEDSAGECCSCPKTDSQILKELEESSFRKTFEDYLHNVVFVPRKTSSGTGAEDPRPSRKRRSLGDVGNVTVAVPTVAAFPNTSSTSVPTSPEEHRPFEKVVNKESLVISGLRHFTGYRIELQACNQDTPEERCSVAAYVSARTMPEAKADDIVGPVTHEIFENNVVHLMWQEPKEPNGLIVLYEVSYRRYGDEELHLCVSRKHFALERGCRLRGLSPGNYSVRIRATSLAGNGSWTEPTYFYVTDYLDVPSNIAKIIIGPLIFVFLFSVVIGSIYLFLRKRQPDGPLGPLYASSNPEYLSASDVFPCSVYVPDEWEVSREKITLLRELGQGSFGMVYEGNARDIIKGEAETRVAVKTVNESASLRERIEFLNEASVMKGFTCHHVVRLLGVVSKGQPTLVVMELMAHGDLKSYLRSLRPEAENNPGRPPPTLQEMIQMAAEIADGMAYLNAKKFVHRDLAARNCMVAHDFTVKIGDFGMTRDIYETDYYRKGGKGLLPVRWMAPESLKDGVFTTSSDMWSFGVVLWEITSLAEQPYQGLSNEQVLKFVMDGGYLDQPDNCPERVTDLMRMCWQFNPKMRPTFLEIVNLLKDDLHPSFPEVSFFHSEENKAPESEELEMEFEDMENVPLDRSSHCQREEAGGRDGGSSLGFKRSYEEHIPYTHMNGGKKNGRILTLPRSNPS
Put plainly: IR cellular autophosphorylation (DELFIA). The conditions noted are these: NIH-3T3 cells over expressing IR, insulin stimulated. Summed up:
(§1)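 Autophosphorylation of IGF-1R or IR is measured in NIH-3T3 lines overexpressing each human receptor after 2 h compound pretreatment and a 15 min ligand challenge (IGF-1 30 ng/mL; insulin 3 ug/mL). Fluorescence is normalised to 100% stimulation.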

Test [3] has as its target T2, human IGF-1R (NIH-3T3 cells over expressing human IGF-1R) (Homo sapiens, UniProt P08069).
T2 construct: expressed in transfected cells; host or cells: NIH-3T3 (mouse fibroblasts)
The test is described as follows: IGF-1R cellular autophosphorylation (DELFIA). The conditions noted are these: IGF-1 stimulated. Summed up:
as §1

Test [4] has as its system NCI-H929 (multiple myeloma). Put plainly: Inhibition of cell proliferation, CellTiter-Glo, NCI-H929. The following applies: Homo sapiens, 72 h. Summed up:
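Cells were grown in medium with 10% FBS at 37° C, 5% CO2. Cell number was read as CellTiter-Glo luminescence (cellular ATP), with untreated wells as control.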

T2 sequence (P08069 31-1367): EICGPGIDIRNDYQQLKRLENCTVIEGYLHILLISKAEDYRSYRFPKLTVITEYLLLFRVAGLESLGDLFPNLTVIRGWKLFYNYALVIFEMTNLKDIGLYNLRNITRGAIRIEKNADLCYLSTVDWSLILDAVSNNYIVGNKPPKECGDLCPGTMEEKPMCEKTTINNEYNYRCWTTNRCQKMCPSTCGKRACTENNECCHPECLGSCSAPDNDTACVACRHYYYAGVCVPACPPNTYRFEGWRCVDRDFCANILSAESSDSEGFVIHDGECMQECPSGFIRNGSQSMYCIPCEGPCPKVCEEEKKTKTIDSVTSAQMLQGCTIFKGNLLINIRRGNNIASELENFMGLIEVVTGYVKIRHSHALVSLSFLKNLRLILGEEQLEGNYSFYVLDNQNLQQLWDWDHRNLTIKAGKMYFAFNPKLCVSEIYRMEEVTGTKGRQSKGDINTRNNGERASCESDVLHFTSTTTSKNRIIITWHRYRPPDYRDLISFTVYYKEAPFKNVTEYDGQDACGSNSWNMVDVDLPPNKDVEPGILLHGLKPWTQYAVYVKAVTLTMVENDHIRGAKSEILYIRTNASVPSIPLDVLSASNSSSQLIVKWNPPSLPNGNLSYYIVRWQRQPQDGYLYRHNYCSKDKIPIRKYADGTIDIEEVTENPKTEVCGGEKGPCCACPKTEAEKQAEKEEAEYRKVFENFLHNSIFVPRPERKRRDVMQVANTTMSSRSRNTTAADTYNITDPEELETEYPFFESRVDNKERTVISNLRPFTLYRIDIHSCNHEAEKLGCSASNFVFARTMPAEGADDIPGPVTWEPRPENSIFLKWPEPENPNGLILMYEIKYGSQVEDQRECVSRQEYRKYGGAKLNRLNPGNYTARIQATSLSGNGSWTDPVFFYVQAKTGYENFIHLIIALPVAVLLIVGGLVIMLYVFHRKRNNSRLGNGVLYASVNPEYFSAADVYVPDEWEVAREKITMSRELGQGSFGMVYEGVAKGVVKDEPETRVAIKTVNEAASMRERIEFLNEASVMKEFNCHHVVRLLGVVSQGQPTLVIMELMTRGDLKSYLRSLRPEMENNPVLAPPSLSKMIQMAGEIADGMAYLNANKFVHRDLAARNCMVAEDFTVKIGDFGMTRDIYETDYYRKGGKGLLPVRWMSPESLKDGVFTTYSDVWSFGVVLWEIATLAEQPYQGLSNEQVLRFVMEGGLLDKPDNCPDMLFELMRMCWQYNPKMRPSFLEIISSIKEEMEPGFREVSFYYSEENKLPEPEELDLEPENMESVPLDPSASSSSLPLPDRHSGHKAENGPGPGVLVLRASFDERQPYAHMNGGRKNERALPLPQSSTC

On to `COc1cc(C2CCN(CCS(C)(=O)=O)CC2)ccc1Nc1nccc(-c2c(-c3cccc(C(=O)Nc4c(F)cccc4F)c3)nc3ccccn23)n1` [Example 180, N-(2,6-difluorophenyl)-3-(3-{2-[(2-(methyloxy)-4-{1-[2-(methylsulfonyl)ethyl]-4-piperidinyl}phenyl)amino]-4-pyrimidinyl}imidazo[1,2-a]pyridin-2-yl)benzamide], for which the IC50 is 0.25 to 1 µM in test [1], less than 0.1 µM in test [2], less than 0.1 µM in test [3] and less than 0.25 µM in test [4].

Turning to `COc1cc(N2CCC(N3CCN(CCS(C)(=O)=O)CC3)CC2)c(Cl)cc1Nc1nccc(-c2c(-c3cccc(C(=O)Nc4c(F)cccc4F)c3)nc3ccccn23)n1` [Example 114, 3-[3-(2-{[5-chloro-2-(methyloxy)-4-(4-{4-[2-(methylsulfonyl)ethyl]-1-piperazinyl}-1-piperidinyl)phenyl]amino}-4-pyrimidinyl)imidazo[1,2-a]pyridin-2-yl]-N-(2,6-difluorophenyl)-benzamide], the IC50 was 0.25 to 1 µM in test [1], less than 0.1 µM in test [2], less than 0.1 µM in test [3] and less than 0.25 µM in test [4].

With `CCCN1CCC(c2cc(OC)c(Nc3nccc(-c4c(-c5ccc(OC)c(C(=O)Nc6c(F)cccc6F)c5)nc5ccccn45)n3)cc2C)CC1` [Example 157, N-(2,6-difluorophenyl)-5-[3-(2-{[5-methyl-2-(methyloxy)-4-(1-propyl-4-piperidinyl)phenyl]-amino}-4-pyrimidinyl)imidazo[1,2-a]pyridin-2-yl]-2-(methyloxy)benzamide], the IC50 in test [1] was less than 0.25 µM; in test [2], less than 0.1 µM; in test [3], less than 0.1 µM; in test [4], less than 0.25 µM.

`COc1cc(C2CCN(CC(C)C)CC2)ccc1Nc1nccc(-c2c(-c3cccc(C(=O)Nc4c(F)cccc4F)c3)nc3ccccn23)n1` [Example 162, N-(2,6-difluorophenyl)-3-{3-[2-({2-(methyloxy)-4-[1-(2-methylpropyl)-4-piperidinyl]phenyl}amino)-4-pyrimidinyl]imidazo[1,2-a]pyridin-2-yl}benzamide]: the IC50 is 0.25 to 1 µM in test [1], less than 0.1 µM in test [2], less than 0.1 µM in test [3] and less than 0.25 µM in test [4].

With `COCCN1CCN(c2cc(OC)c(Nc3nccc(-c4c(-c5cccc(C(=O)Nc6c(F)cccc6F)c5)nc5ccccn45)n3)cc2C)CC1` [Example 243, N-(2,6-difluorophenyl)-3-(3-{2-[(5-methyl-2-(methyloxy)-4-{4-[2-(methyloxy)ethyl]-1-piperazinyl}phenyl)amino]-4-pyrimidinyl}imidazo[1,2-a]pyridin-2-yl)benzamide], the IC50 is 0.25 to 1 µM in test [1], less than 0.1 µM in test [2], less than 0.1 µM in test [3] and less than 0.25 µM in test [4].

For `COc1cc(N2CCC(N3CCC(CCS(C)(=O)=O)CC3)CC2)ccc1Nc1nccc(-c2c(-c3ccc(OC)c(C(=O)Nc4c(F)cccc4F)c3)nc3ccccn23)n1` [Example 102, N-(2,6-difluorophenyl)-2-(methyloxy)-5-(3-{2-[(2-(methyloxy)-4-{4-[2-(methylsulfonyl)ethyl]-1,4′-bipiperidin-1′-yl}phenyl)amino]-4-pyrimidinyl}imidazo[1,2-a]pyridin-2-yl)benzamide], the IC50 is 0.25 to 1 µM in test [1], less than 0.1 µM in test [2], less than 0.1 µM in test [3] and less than 0.25 µM in test [4].

In the case of `CCOc1ccc(-c2nc3ccccn3c2-c2ccnc(Nc3ccc(N4CCC(N5CCN(S(C)(=O)=O)CC5)CC4)cc3OC)n2)cc1C(=O)Nc1c(F)cccc1F` [Example 228, N-(2,6-difluorophenyl)-2-(ethyloxy)-5-(3-{2-[(2-(methyloxy)-4-{4-[4-(methylsulfonyl)-1-piperazinyl]-1-piperidinyl}phenyl)amino]-4-pyrimidinyl}imidazo[1,2-a]pyridin-2-yl)benzamide], the IC50 was less than 0.25 µM in test [1], less than 0.1 µM in test [2], less than 0.1 µM in test [3] and less than 0.25 µM in test [4].

Consider `CCCN1CCN(c2ccc(Nc3nccc(-c4c(-c5ccc(OC)c(C(=O)Nc6c(F)cccc6F)c5)nc5ccccn45)n3)c(OCC)c2)CC1` [Example 151, N-(2,6-difluorophenyl)-5-[3-(2-{[2-(ethyloxy)-4-[4-propyl-1-piperazinyl)phenyl]amino}-4-pyrimidinyl)imidazo[1,2-a]pyridin-2-yl]-2-(methyloxy)benzamide], for which the IC50 was 0.25 to 1 µM in test [1], less than 0.1 µM in test [2], less than 0.1 µM in test [3] and less than 0.25 µM in test [4].

For `CS(=O)(=O)CCN1CCN(C2CCN(c3ccc(Nc4nccc(-c5c(-c6cccc(C(=O)Nc7c(F)cccc7F)c6)nc6ccccn56)n4)c(OCC(F)(F)F)c3)CC2)CC1` [Example 120, N-(2,6-difluorophenyl)-3-{3-[2-({4-(4-{4-[2-(methylsulfonyl)ethyl]-1-piperazinyl}-1-piperidinyl)-2-[(2,2,2-trifluoroethyl)oxy]phenyl}amino)-4-pyrimidinyl]imidazo[1,2-a]pyridin-2-yl}benzamide], the IC50 in test [1] is 0.25 to 1 µM; in test [2] it was less than 0.1 µM; in test [3] it was less than 0.1 µM; in test [4], less than 0.25 µM.

For the compound `COc1cc(N2CCN(C(C)C)CC2)ccc1Nc1nccc(-c2c(-c3ccc(OC)c(C(=O)Nc4c(F)cccc4F)c3)nc3ccccn23)n1` [Example 176, N-(2,6-difluorophenyl)-5-[3-(2-{[4-[4-(1-methylethyl)-1-piperazinyl]-2-(methyloxy)phenyl]-amino}-4-pyrimidinyl)imidazo[1,2-a]pyridin-2-yl]-2-(methyloxy)benzamide], the IC50 in test [1] was 0.25 to 1 µM; in test [2] it was less than 0.1 µM; in test [3], less than 0.1 µM; in test [4], less than 0.25 µM.

As for `COCCN(CCOC)C1CCN(c2ccc(Nc3nccc(-c4c(-c5cccc(C(=O)Nc6c(F)cccc6F)c5)nc5ccccn45)n3)c(OC)c2)CC1` [Example 49, 3-[3-(2-{[4-(4-{bis[2-(methyloxy)ethyl]amino}-1-piperidinyl)-2-(methyloxy)phenyl]amino}-4-pyrimidinyl)imidazo[1,2-a]pyridin-2-yl]-N-(2,6-difluorophenyl)benzamide], the IC50 in test [1] is 0.25 to 1 µM; in test [2] it was less than 0.1 µM; in test [3], 0.1 to 0.5 µM; in test [4] it was 0.25 to 1 µM.

For the compound `COc1cc(N2CCC(N3CCN(S(C)(=O)=O)CC3)CC2)ccc1Nc1nccc(-c2c(-c3cccc(C(=O)Nc4c(F)cccc4F)c3)nc3c(F)cccn23)n1` [Example 192, N-(2,6-difluorophenyl)-3-(8-fluoro-3-{2-[(2-(methyloxy)-4-{4-[4-(methylsulfonyl)-1-piperazinyl]-1-piperidinyl}phenyl)amino]-4-pyrimidinyl}imidazo[1,2-a]pyridin-2-yl)benzamide], the IC50 in test [1] is 0.25 to 1 µM; in test [2], 0.1 to 0.5 µM; in test [3] it was less than 0.1 µM; in test [4] it was 0.25 to 1 µM.

`CCCN1CCN(c2ccc(Nc3nccc(-c4c(-c5ccc(OC)c(C(=O)Nc6c(F)cccc6F)c5)nc5ccccn45)n3)c(OC)c2)CC1` [Example 174, N-(2,6-difluorophenyl)-2-(methyloxy)-5-[3-(2-{[2-(methyloxy)-4-(4-propyl-1-piperazinyl)phenyl]amino}-4-pyrimidinyl)imidazo[1,2-a]pyridin-2-yl]benzamide]: the IC50 in test [1] is 0.25 to 1 µM; in test [2], less than 0.1 µM; in test [3], less than 0.1 µM; in test [4] it was less than 0.25 µM.

In the case of `COc1cc(N2CCC(N3CCN(S(C)(=O)=O)CC3)CC2)c(C)cc1Nc1nccc(-c2c(-c3ccc(OC)c(C(=O)Nc4c(F)cccc4F)c3)nc3ccccn23)n1` [Example 236, N-(2,6-difluorophenyl)-5-(3-{2-[(5-methyl-2-(methyloxy)-4-{4-[4-(methylsulfonyl)-1-piperazinyl]-1-piperidinyl}phenyl)amino]-4-pyrimidinyl}imidazo[1,2-a]pyridin-2-yl)-2-(methyloxy)benzamide], the IC50 in test [1] was less than 0.25 µM; in test [2] it was less than 0.1 µM; in test [3], less than 0.1 µM; in test [4], less than 0.25 µM.

With `CCCc1cc(C2CCN(CCS(C)(=O)=O)CC2)ccc1Nc1nccc(-c2c(-c3ccc(OCC)c(C(=O)Nc4c(F)cccc4F)c3)nc3ccccn23)n1` [Example 168, N-(2,6-difluorophenyl)-2-(ethyloxy)-5-(3-{2-[(4-{1-[2-(methylsulfonyl)ethyl]-4-piperidinyl}-2-propylphenyl)amino]-4-pyrimidinyl}imidazo[1,2-a]pyridin-2-yl)benzamide], the IC50 was 0.25 to 1 µM in test [1], less than 0.1 µM in test [2], less than 0.1 µM in test [3] and less than 0.25 µM in test [4].

`COc1cc(N2CCC(N3CCCCC3)CC2)ccc1Nc1nccc(-c2c(-c3cccc(C(=O)Nc4c(F)cccc4F)c3)nc3c(F)cccn23)n1` [Example 190, 3-[3-(2-{[4-(1,4′-bipiperidin-1-yl)-2-(methyloxy)phenyl]amino}-4-pyrimidinyl)-8-fluoroimidazo[1,2-a]pyridin-2-yl]-N-(2,6-difluorophenyl)benzamide]: the IC50 is 0.25 to 1 µM in test [1], 0.1 to 0.5 µM in test [2], less than 0.1 µM in test [3] and 0.25 to 1 µM in test [4].
